Reference: ChEMBL document CHEMBL6114982, “Structural optimization and characterization of highly potent and selective STAT3 inhibitors for the treatment of triple negative breast cancer” (Eur J Med Chem, 2025)
Calls of active or inactive are those of the source. No cut-off for these calls is given here.

Tests used:
[1] = system: MDA-MB-231; assay: Antiproliferative activity against human MDA-MB-231 cells assessed as inhibition of cell growth incubated for 72 hrs by SRB method; assay type: functional, cell-based; conditions: MDA-MB-231, 72 h
[2] = molecular target: T1, Signal transducer and activator of transcription 3 (Homo sapiens, UniProt P40763); assay: Inhibition of STAT3 phosphorylation at Tyr705 residue in human MDA-MB-231 cells at 0.1 uM by Western blot analysis; assay type: cell-based; conditions: time 8-48 hrs
[3] = molecular target: T1, Signal transducer and activator of transcription 3; assay: Inhibition of STAT3 phosphorylation at Tyr705 residue in human BT-549 cells at 0.1 uM by Western blot analysis; assay type: cell-based; conditions: time 8-48 hrs
[4] = molecular target: T1, Signal transducer and activator of transcription 3; assay: Inhibition of STAT3 phosphorylation at Tyr705 residue in human BT-549 cells measured after 8 to 48 hrs by Western blot analysis; assay type: cell-based; conditions: dose 0.1 µM, time 8-48 hrs
[5] = system: MDA-MB-231; assay: Downregulation of cyclin D1 level in human MDA-MB-231 cells measured after 48 hrs by Western blot analysis; assay type: functional, cell-based; conditions: dose 0.05-0.5 µM
[6] = system: MDA-MB-231; assay: Downregulation of Bcl-2 level in human MDA-MB-231 cells measured after 48 hrs by Western blot analysis; assay type: functional, cell-based; conditions: dose 0.05-0.5 µM
[7] = system: BT-549; assay: Downregulation of Bcl-2 level in human BT-549 cells measured after 48 hrs by Western blot analysis; assay type: functional, cell-based; conditions: dose 0.05-0.5 µM
[8] = system: BT-549; assay: Downregulation of Bcl-xl level in human BT-549 cells measured after 48 hrs by Western blot analysis; assay type: functional, cell-based; conditions: dose 0.05-0.5 µM
[9] = system: MDA-MB-231; assay: Downregulation of CD44 expression in human MDA-MB-231 cells by Western blot analysis; assay type: functional, cell-based
[10] = system: MDA-MB-231; assay: Effect on ERK12 phosphorylation level in human MDA-MB-231 cells at 0.05 to 0.5 uM measured after 48 hrs by Western blot analysis; assay type: functional, cell-based; conditions: dose 0.05-0.5 µM
[11] = system: MDA-MB-231; assay: Effect on Akt phosphorylation level in human MDA-MB-231 cells at 0.05 to 0.5 uM measured after 48 hrs by Western blot analysis; assay type: functional, cell-based; conditions: dose 0.05-0.5 µM
[12] = system: MDA-MB-231; assay: Effect on STAT1 phosphorylation level in human MDA-MB-231 cells at 0.05 to 0.5 uM measured after 48 hrs by Western blot analysis; assay type: functional, cell-based; conditions: dose 0.05-0.5 µM
[13] = system: BT-549; assay: Effect on JAK1 phosphorylation level in human BT-549 cells at 0.05 to 0.5 uM measured after 48 hrs by Western blot analysis; assay type: functional, cell-based; conditions: dose 0.05-0.5 µM
[14] = system: BT-549; assay: Effect on STAT1 phosphorylation level in human BT-549 cells at 0.05 to 0.5 uM measured after 48 hrs by Western blot analysis; assay type: functional, cell-based; conditions: dose 0.05-0.5 µM
[15] = system: BT-549; assay: Effect on STAT5 phosphorylation level in human BT-549 cells at 0.05 to 0.5 uM measured after 48 hrs by Western blot analysis; assay type: functional, cell-based; conditions: dose 0.05-0.5 µM
[16] = molecular target: T1, Signal transducer and activator of transcription 3; assay: Inhibition of STAT3 nuclear translocation in human MDA-MB-231 cells assessed as decrease in p-STAT3 at Tyr705 residue at 0.05 to 0.5 uM preincubated for 48 hrs followed by IL-6 addition and measured after 2 hrs by Immunofluorescence analysis; assay type: cell-based; conditions: dose 0.05-0.5 µM, time 50.0 hrs
[17] = molecular target: T1, Signal transducer and activator of transcription 3; assay: Inhibition of STAT3 nuclear translocation in human BT-549 cells assessed as decrease in p-STAT3 at Tyr705 residue at 0.05 to 0.5 uM preincubated for 48 hrs followed by IL-6 addition and measured after 2 hrs by Immunofluorescence analysis; assay type: cell-based; conditions: dose 0.05-0.5 µM, time 50.0 hrs
[18] = system: BT-549; assay: Inhibition of colony formation in human BT-549 cells measured after 14 days by crystal violet staining based analysis; assay type: functional, cell-based; conditions: dose 0.1-0.5 µM, time 14.0 day
[19] = system: MDA-MB-231; assay: Inhibition of colony formation in human MDA-MB-231 cells at low concentration measured after 14 days by crystal violet staining based analysis; assay type: functional, cell-based; conditions: time 14.0 day
[20] = system: BT-549; assay: Inhibition of colony formation in human BT-549 cells at low concentration measured after 14 days by crystal violet staining based analysis; assay type: functional, cell-based; conditions: time 14.0 day
[21] = system: MDA-MB-231; assay: Inhibition of colony formation in human MDA-MB-231 cells measured after 14 days by soft agar plate cloning assay; assay type: functional, cell-based; conditions: time 14.0 day
[22] = system: BT-549; assay: Inhibition colony formation in human BT-549 cells harbouring STAT3 siRNA at 0.1 uM after 14 days by crystal violet staining based analysis; assay type: functional, cell-based; conditions: time 14.0 day
[23] = system: BT-549; assay: Inhibition of cell migration in human BT-549 cells assessed as reduction in wound closure proportion at 0.05 to 0.5 uM incubated for 24 hrs by inverted microscopic analysis; assay type: functional, cell-based; conditions: dose 0.05-0.5 µM
[24] = system: MDA-MB-231; assay: Inhibition of cell invasion in human MDA-MB-231 cells assessed as decrease in number of invaded cells incubated for 24 hrs by crystal violet staining based inverted microscopic analysis; assay type: functional; conditions: dose 0.05-0.5 µM
[25] = system: BT-549; assay: Inhibition of cell invasion in human BT-549 cells assessed as decrease in number of invaded cells incubated for 24 hrs by crystal violet staining based inverted microscopic analysis; assay type: functional; conditions: dose 0.05-0.5 µM
[26] = system: MDA-MB-231; assay: Induction of apoptosis in human MDA-MB-231 cells incubated for 48 hrs by Annexin V and PI staining based flow cytometry analysis; assay type: functional, cell-based; conditions: dose 0.05-0.5 µM
[27] = system: MDA-MB-231; assay: Induction of apoptosis in human MDA-MB-231 cells assessed as late apoptotic at 0.1 uM incubated for 48 hrs by Annexin V and PI staining based flow cytometry analysis (reference value: 2.71%); assay type: functional
[28] = system: MDA-MB-231; assay: Induction of apoptosis in human MDA-MB-231 cells assessed as late apoptotic at 0.5 uM incubated for 48 hrs by Annexin V and PI staining based flow cytometry analysis (reference value: 2.71%); assay type: functional
[29] = system: MDA-MB-231; assay: Antitumor activity against human MDA-MB-231 cells xenografted in female nude BALB/c mouse model assessed as tumor growth inhibition at 10 mg/kg, ip administered every other day for 30 days relative to control; assay type: functional; conditions: MDA-MB-231, 720 h, time 30 day, read-out: TGI
[30] = system: MDA-MB-231; assay: Antitumor activity against human MDA-MB-231 cells xenografted in female nude BALB/c mouse model assessed as tumor growth inhibition at 20 mg/kg, ip administered every other day for 30 days relative to control; assay type: functional; conditions: MDA-MB-231, 720 h, time 30 day, read-out: TGI
[31] = MRT in female BALB/c nude mouse administered as iv dose; assay type: ADME, organism-based; conditions: in vivo
[32] = Toxicity in female BALB/c nude mouse assessed as drug tolerance at 10 to 20 mg/kg, iv measured after 30 days; assay type: organism-based; conditions: in vivo, 720 h, dose 10-20 mg/kg, time 30 day
[33] = molecular target: T1, Signal transducer and activator of transcription 3; assay: Competitive binding affinity to STAT3 SH2 domain (unknown origin) expressed in HEK293T cells assessed as decrease in fluorescence intensity by dual luciferase analysis; assay type: cell-based; conditions: dose 0.05-0.5 µM
[34] = molecular target: T1, Signal transducer and activator of transcription 3; assay: Inhibition of STAT3 phosphorylation in human MDA-MB-231 cells assessed as upregulation of UBE2S expression level; assay type: cell-based
[35] = molecular target: T1, Signal transducer and activator of transcription 3; assay: Inhibition of STAT3 phosphorylation in human MDA-MB-231 cells assessed as downregulation of KRT1 expression level; assay type: cell-based
[36] = molecular target: T1, Signal transducer and activator of transcription 3; assay: Inhibition of STAT3 phosphorylation in human MDA-MB-231 cells assessed as downregulation of KRT10 expression level; assay type: cell-based
[37] = molecular target: T1, Signal transducer and activator of transcription 3; assay: Inhibition of STAT3 phosphorylation in human MDA-MB-231 cells assessed as downregulation of TAGLN expression level; assay type: cell-based
[38] = molecular target: T1, Signal transducer and activator of transcription 3; assay: Inhibition of STAT3 in human MDA-MB-231 cells assessed as upregulation of NDUFAB1 level; assay type: cell-based
[39] = molecular target: T1, Signal transducer and activator of transcription 3; assay: Inhibition of STAT3 in human MDA-MB-231 cells assessed as downregulation of SPRY1 level; assay type: cell-based

T1 sequence (P40763 whole entry): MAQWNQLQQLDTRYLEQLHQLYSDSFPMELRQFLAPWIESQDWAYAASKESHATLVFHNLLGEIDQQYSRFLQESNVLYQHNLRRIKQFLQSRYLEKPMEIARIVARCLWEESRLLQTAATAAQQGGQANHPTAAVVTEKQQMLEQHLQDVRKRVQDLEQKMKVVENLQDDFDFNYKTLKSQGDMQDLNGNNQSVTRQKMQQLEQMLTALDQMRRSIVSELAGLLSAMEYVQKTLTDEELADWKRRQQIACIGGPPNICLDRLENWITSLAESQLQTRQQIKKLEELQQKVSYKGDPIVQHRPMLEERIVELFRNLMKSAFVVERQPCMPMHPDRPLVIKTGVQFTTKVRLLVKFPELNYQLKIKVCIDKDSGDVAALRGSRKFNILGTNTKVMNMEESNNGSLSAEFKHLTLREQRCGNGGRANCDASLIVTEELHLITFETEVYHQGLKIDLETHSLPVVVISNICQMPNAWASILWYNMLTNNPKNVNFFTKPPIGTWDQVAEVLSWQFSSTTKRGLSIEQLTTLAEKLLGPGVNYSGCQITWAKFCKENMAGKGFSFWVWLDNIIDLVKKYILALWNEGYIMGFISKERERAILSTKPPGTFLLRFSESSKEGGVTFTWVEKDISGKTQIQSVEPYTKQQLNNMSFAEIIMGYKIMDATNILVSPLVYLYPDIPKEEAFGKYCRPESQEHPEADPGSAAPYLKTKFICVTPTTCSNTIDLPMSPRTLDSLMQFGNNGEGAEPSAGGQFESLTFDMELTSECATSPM

IC50 [1]: 30 nM
inhibition [2]: Time-dependent-effect
inhibition [3]: Time-dependent-effect
inhibition [4]: Dose-dependent-effect
inhibition [16]: Active
inhibition [17]: Active
MRT [31]: 10 h
Activity [33]: Dose-dependent-effect
inhibition [34]: Active
inhibition [35]: Active
inhibition [36]: Active
inhibition [37]: Active
inhibition [38]: Active
inhibition [39]: Active
SMILES: COc1cccc(C(=O)Nc2sc3c(c2C#N)CCN(C(=O)Nc2ccccc2OC)C3)c1
Activity [5]: Dose-dependent-effect
Activity [6]: Dose-dependent-effect
Activity [7]: Dose-dependent-effect
Activity [8]: Dose-dependent-effect
Activity [9]: Active
Activity [10]: inactive
Activity [11]: inactive
Activity [12]: inactive
Activity [13]: inactive
Activity [14]: inactive
Activity [15]: inactive
inhibition [18]: Dose-dependent-effect
inhibition [19]: Active; Compound Showed Robust Inhibition Compared To Positive Control
inhibition [20]: Active; Compound Showed Robust Inhibition Compared To Positive Control
inhibition [21]: Active
inhibition [22]: inactive
inhibition [23]: Active
inhibition [24]: Dose-dependent-effect
inhibition [25]: Dose-dependent-effect
Activity [26]: Dose-dependent-effect
Activity [27]: 16.08%
Activity [28]: 19.18%
inhibition in vivo at 10 mg/kg [29]: 51.5%
inhibition in vivo at 20 mg/kg [30]: 58%
Activity [32]: Non-toxic
